Measurements taken from publication PMC3954757, “Novel Potent Imidazo[1,2-a]pyridine-N-Glycinyl-Hydrazone Inhibitors of TNF-α Production: In Vitro and In Vivo Studies” (PLoS ONE, 2014).
Values joined by “and” are separate entries in the source; they are usually repeats but may differ in a detail not shown here. Equal values may be shown once.

Key:
[1] = Cell viability by MTT assay; type: cell-based, mouse; details: mouse, peritoneal macrophages; 10 µM; MTT; compared to vehicle (DMSO)
Protocol: (§1) The peritoneal macrophage were obtained and plated as described above. The cells were incubated with the vehicle or compounds for 20 hours when was added 200 µL of RPMI medium containing 0.5 mg/mL MTT […] (3-(4,5-dimethylthiazol-2-yl)-2,5-diphenyltetrazolium bromide) followed by 4 hour of incubation at 37°C in a 5% CO2 atmosphere. After incubation supernatants were discarded and 200 µL DMSO (dimethylsulfoxide) were added to solubilize the MTT-formazan crystals. The optical density was measured in a microplate reader at 490 nm. The control groups consisted of cells with medium plus vehicle used to dissolve the substances and was considered as 100% of viable cells. Results are expressed as percentage of viable cells when compared with control groups.

TNF-α production [2] = assay: LPS-induced TNF-α production in culture of mice peritoneal macrophage (ELISA); details: Mus musculus; for inhibition at 10 µM: 24 h, read-out: TNF-α % inhibition at 10 µM; for IC50: read-out: TNF-α IC50
Protocol: BALBc mice received thyoglicollate 3% (1 mL/mice; i.p.) and 3 days later the peritoneal cavities were washed with RPMI 1640 culture medium (Sigma, USA, supplemented with 10% fetal bovine serum). The peritoneal macrophages were plated onto 96-wells plate (30.000 cells/well) for 1 hour at 37°C in a humidified 5% CO2 atmosphere. Then, macrophages were incubated with the vehicle or compounds and 1 hour later stimulated with LPS(100 ng/mL) for 24 hours when the supernatants were collected to evaluate TNF-α production by ELISA kit (B&D Bioscience, USA).

[3] = tested on: murine peritoneal macrophages; assay: Cell viability by MTT assay; type: cell-based, mouse; details: for IC50: Mus musculus, Peritoneal macrophage, MTT cytotoxicity, concentration range 0.1–100 µM; for Selectivity Index (SI): SI = cytotoxicity IC50/anti-TNF-α IC50
Protocol: as §1

p38α MAPK = p38α MAPK (Homo sapiens, UniProt Q16539); assay: p38α MAPK activity, nonradioactive immunosorbent assay; type: biochemical
Protocol: Because the novel N-acylhydrazone derivatives 1 were designed based on the p38α MAPK inhibitor BIRB-796 (3), some of them were evaluated for their in vitro capacity to inhibit p38α MAPK activity at a concentration of 10 µM.
*This assay was performed as described by Goettert MR, Graeser, Laufer SA (2010) Optimization of a nonradioactive immunosorbent assay for p38 alpha mitogen-activated protein kinase activity. Anal Biochem 406: 233–234.

IFN-γ production = assay: Subcutaneous air pouch (SAP) model, IFN-γ in exudate; type: in vivo, mice; details: oral
Protocol: (§2) We also measured the levels of the cytokines interferon-γ (IFN- γ) and interleukin 1β (IL-1β).
(§3) Figure 5 Effect of compound 1i on IL-1β and IFN-γ production. Twenty-four hours prior to carrageenan (1%) injection into the subcutaneous air pouch (SAP), animals were pretreated by oral administration with different doses of a solution of 1i. The results are presented as the mean ± S. D. (n = 6–10) of each cytokine (ng/mL). Statistical significance was calculated by ANOVA followed by Bonferroni’s test. * indicates p<0.005 for the comparison of 1i -treated mice with the vehicle-treated group; # indicates p<0.005 for the comparison of vehicle-treated mice with the PBS-treated group.
(§4) The experimental protocol was similar to that described by Romano and colleagues (1997) with several modifications described by Raymundo and colleagues (2011). The animals received a dorsal subcutaneous injection of sterile air (10 mL) on three alternate days to induce the SAP. On the sixth day, animals received a subcutaneous injection of sterile carrageenan suspension (1%; 1 mL). Mice were pre-treated with vehicle (Polysorbate 80), 1i (3, 10, 30 and 100 µmol/kg) or dexamethasone (1.5 µmol/kg, i.p.) 1 h before carrageenan injection into the SAP. The control group received an injection of sterile PBS (1 mL) into the SAP. Animals were sacrificed 24 h after carrageenan injection. The cavity was washed with 1 mL of sterile PBS. Exudates were collected, centrifuged at 11,000 rpm for 10 min at 4°C and TNF-α accumulated was quantified. The cytokines quantification was done by enzyme-linked immunosorbent assay (ELISA) according to the manufacturer’s instructions (B&D, USA). The results are expressed as pg/mL of each cytokine. Animals were sacrificed after an exposition to a saturated carbon dioxide atmosphere in an appropriate gas chamber.

IL-1β production = assay: Subcutaneous air pouch (SAP) model, IL-1β in exudate; type: in vivo, mice; details: oral
Protocol: as §2, §3, §4

TNF-α production [4] = assay: Subcutaneous air pouch (SAP) model, TNF-α in exudate; type: in vivo, mice; details: 1i oral pre-treatment, carrageenan 1% SAP
Text: Because compound 1i provided a better balance between the IC50 value for TNF-α production and cellular toxicity in vitro, we evaluated its effects in the subcutaneous air pouch (SAP) model, an in vivo model of inflammation and TNF production, [28].
as §3, with “Figure 4” for “Figure 5”, “on TNF-α” for “on IL-1β and IFN-γ”, “of TNF-α (pg/mL).” for “of each cytokine (ng/mL).”
as §4

Sequence of p38α MAPK (Q16539 whole entry): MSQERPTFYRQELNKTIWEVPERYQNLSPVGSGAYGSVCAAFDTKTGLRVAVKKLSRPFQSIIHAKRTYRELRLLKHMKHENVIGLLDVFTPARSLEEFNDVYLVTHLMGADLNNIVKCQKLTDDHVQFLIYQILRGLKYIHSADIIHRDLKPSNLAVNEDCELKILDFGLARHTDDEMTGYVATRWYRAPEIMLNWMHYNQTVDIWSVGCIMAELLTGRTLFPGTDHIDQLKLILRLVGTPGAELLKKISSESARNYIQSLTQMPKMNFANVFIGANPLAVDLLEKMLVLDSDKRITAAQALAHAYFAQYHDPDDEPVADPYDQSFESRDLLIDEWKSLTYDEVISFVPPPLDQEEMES

| SMILES | melting point | IC50 (TNF-α production [2]) | inhibition at 10 µM (p38α MAPK) | viability at 20 h, 10 µM [1] | inhibition at 10 µM (TNF-α production [2]) | IC50 [3] | Selectivity Index (SI) [3] | other results |
| --- | --- | --- | --- | --- | --- | --- | --- | --- |
| CC(C)(C)c1nc2ccccn2c1NCC(=O)N/N=C/c1ccc(OCCN2CCOCC2)cc1 [Compound 1h, (E)-2-(2-tert-butylimidazo[1,2-a]pyridin-3-ylamino)-N’-(4-(2-morpholinoethoxy)benzylidene)acetohydrazide] | – | – | – | 100% | 2.8% | – | – | – |
| O=C(CNc1c(-c2ccccc2)nc2ccccn12)N/N=C/c1ccc(OCCN2CCOCC2)c2ccccc12 [Compound 1b, (E)-N’-((4-(2-morpholinoethoxy)naphthalen-1-yl)methylene)-2-(2-phenylimidazo [1,2-a]pyridin-3-ylamino)acetohydrazide] | 105 to 108 °C | 0.34 µM | 6.5% | 78.4% | 77.3% | 14.7 µM | 43.2 | – |
| C[S+]([O-])c1ccc(-c2nc(-c3ccncc3)c(-c3ccc(F)cc3)[nH]2)cc1 (stereo not drawn) [SB-203580, reference compound] | – | – | – | 44.3% | 90% | – | – | – |
| O=C(CNc1c(-c2ccccc2)nc2ccccn12)N/N=C/c1cccc2ccccc12 [Compound 1k, (E)-N’-(naphthalen-1-ylmethylene)-2-(2-phenylimidazo[1,2-a]pyridin-3-ylami-no)acetohydrazide] | 208 to 210 °C | 0.99 µM | 17.2% | 83.2% | 75.8% | 23.5 µM | 23.7 | – |
| CC(C)(C)c1cc(NCC(=O)N/N=C/c2ccc(OCCN3CCOCC3)c3ccccc23)n(-c2ccccc2)n1 [LASSBio-1504 (2), reference compound] | – | 3.6 µM | – | 61.5% | 96.9% | 10.3 µM | 2.8 | – |
| CC(C)(C)c1nc2ccccn2c1NCC(=O)N/N=C/c1ccc(OCCN2CCOCC2)c2ccccc12 [Compound 1a, (E)-2-(2-tert-butylimidazo[1,2-a]pyridin-3-ylamino)-N’-((4-(2-morpholinoethoxy)naphthalen-1-yl)methylene)acetohydrazide] | 135 to 137 °C | 0.62 µM | 11.8% | 20.1% | 95.3% | 6.9 µM | 11.1 | – |
| O=C(CNc1c(-c2ccccc2)nc2ccccn12)N/N=C/c1ccc(OCCN2CCOCC2)cc1 [Compound 1c, (E)-N’-(4-(2-morpholinoethoxy)benzylidene)-2-(2-phenylimidazo[1,2-a]pyridin-3-ylamino)acetohydrazide] | 169 to 171 °C and 167 to 169 °C | – | 22.6% | 100% | 18.3% | – | – | – |
| O=C(CNc1c(-c2ccccc2)nc2ccccn12)N/N=C/c1ccc(O)c2ccccc12 [Compound 1j, (E)-N’-((4-hydroxynaphthalen-1-yl)methylene)-2-(2-phenylimidazo[1,2-a]pyridin-3-ylamino)acetohydrazide] | > 300 °C | 0.31 µM | – | 40% | 90.8% | 10.4 µM | 33.5 | – |

Now from value to compound, other results behind:

| melting point | IC50 (TNF-α production [2]) | inhibition at 10 µM (p38α MAPK) | SMILES | viability at 20 h, 10 µM [1] | inhibition at 10 µM (TNF-α production [2]) | IC50 [3] | Selectivity Index (SI) [3] | other results |
| --- | --- | --- | --- | --- | --- | --- | --- | --- |
| 138 to 141 °C | – | – | O=C(CNc1c(-c2ccccc2)nc2ccccn12)N/N=C/c1ccccc1 [Compound 1f, (E)-N’-benzylidene-2-(2-phenylimidazo[1,2-a]pyridin-3-ylamino)acetohydrazide] | 100% | 29.3% | – | – | – |
| 122 to 124 °C and 120 to 122 °C | 3.05 µM | – | O=C(CNc1c(-c2ccccc2)nc2ccccn12)N/N=C/c1ccc(Cl)cc1 [Compound 1e, (E)-N’-(4-chlorobenzylidene)-2-(2-phenylimidazo[1,2-a]pyridin-3-ylamino) acetohydrazide] | 100% | 53.8% | – | – | – |
| 232 to 234 °C | 0.21 µM | – | CC(C)(C)c1nc2ccccn2c1NCC(=O)N/N=C/c1ccc(Cl)cc1 [Compound 1i, (E)-2-(2-tert-butylimidazo[1,2-a]pyridin-3-ylamino)-N’-(4-chlorobenzylidene) acetohydrazide] | 73.3% | 78% | 21.7 µM | 103.3 | inhibition of IFN-γ (IFN-γ production; 3 µmol/kg): 83.7%; inhibition of IFN-γ (IFN-γ production; 10 µmol/kg): 83%; inhibition of IFN-γ (IFN-γ production; 30 µmol/kg): 82.8%; inhibition of IFN-γ (IFN-γ production; 100 µmol/kg): 82.4%; reduction in IL-1β (IL-1β production; 3 µmol/kg): 81%; reduction in IL-1β (IL-1β production; 10 µmol/kg): 69.5%; reduction in IL-1β (IL-1β production; 30 µmol/kg): 74.7%; reduction in IL-1β (IL-1β production; 100 µmol/kg): 65.7%; reduction of TNF-α production (TNF-α production [4]; 3 µmol/kg): 96.8%; reduction of TNF-α production (TNF-α production [4]; 10 µmol/kg): 90.6%; reduction of TNF-α production (TNF-α production [4]; 30 µmol/kg): 97.3%; reduction of TNF-α production (TNF-α production [4]; 100 µmol/kg): 95.31% |
| 273 to 275 °C | 3.67 µM | – | O=C(CNc1c(-c2ccccc2)nc2ccccn12)N/N=C/c1ccc(O)cc1 [Compound 1d, (E)-N’-(4-hydroxybenzylidene)-2-(2-phenylimidazo[1,2-a]pyridin-3-ylamino) acetohydrazide] | 100% | 56.7% | – | – | – |
| 230 to 232 °C | – | – | CC(C)(C)c1nc2ccccn2c1NCC(=O)N/N=C/c1ccccc1 [Compound 1g, (E)-N’-benzylidene-2-(2-tert-butylimidazo[1,2-a]pyridin-3-ylamino)acetohydrazide] | 100% | 5.6% | – | – | – |
